pEC50, pIC50: −log10 of the molar value.
Legend:
[1] = Lipophilicity index (RP-HPLC pH 7); format: physicochemical; conditions: buffer
CEM-SS [2] = assay: Inhibitory activity against HIV-1 virus replication as determined by an XTT endpoint by 50%; format: functional; conditions: Homo sapiens, read-out: ED50 (the source's name)
H9 = assay: Inhibitory activity against human T cell lymphoma (H9) growth by 50 %.; format: functional
[3] = biological target: Human immunodeficiency virus type 1 protease (Human immunodeficiency virus 1, UniProt Q72874); assay: Inhibitory activity against HIV-1 protease cleavage of [V-S-Q-N-(beta-naphthylalanine)-P-I-V)
[4] = Plasma elimination half life was determined for the compound; format: ADME, cell-free
CEM-SS [5] = assay: Inhibitory activity against HIV-2 virus replication as determined by an XTT endpoint by 50%; format: functional; conditions: Homo sapiens, read-out: ED50 (the source's name)
[6] = In vitro therapeutic index was evaluated; format: functional

Row | SMILES | Log k' [1] | pEC50 (CEM-SS [2]) | CC50 (H9) [nM] | pIC50 [3] | half-life [4] [h] | pEC50 (CEM-SS [5]) | Therapeutic index [6]
1 | CC(C)(C)OC(=O)N[C@@H](Cc1ccccc1)[C@H](O)CNC[C@@H](O)[C@H](Cc1ccc(OCC(=O)O)cc1)NC(=O)OC(C)(C)C | 0.12 | 4.13 | > 100000 | 6.82 | – | – | –
2 | COCCCCOc1ccc(C[C@H](NC(=O)OC(C)(C)C)[C@H](O)CNC[C@@H](O)[C@H](Cc2ccccc2)NC(=O)OC(C)(C)C)cc1 | 1.6 | > 7.52 | 12000 | 7.30 | – | – | –
3 | CN(C)C(=O)OCCOc1ccc(C[C@H](NC(=O)OC(C)(C)C)[C@H](O)CNC[C@@H](O)[C@H](Cc2ccccc2)NC(=O)OC(C)(C)C)cc1 | 1.24 | 6.92 | 16000 | 7.40 | – | – | –
4 | CC(C)(C)OC(=O)N[C@@H](Cc1ccccc1)[C@H](O)CNC[C@@H](O)[C@H](Cc1cccc(O)c1)NC(=O)OC(C)(C)C | 0.92 | 6.82 | 17000 | 6.70 | – | – | –
5 | CC(C)(C)OC(=O)N[C@@H](Cc1ccccc1)[C@H](O)CNC[C@@H](O)[C@H](Cc1ccccc1)NC(=O)OC(C)(C)C | 1.39 | 7.10 | 8500 | – | 4 | 6.92 | 100
6 | CC(C)(C)OC(=O)N[C@@H](Cc1ccccc1)[C@H](O)CNC[C@@H](O)[C@H](Cc1ccc(OCc2nc3ccccc3o2)cc1)NC(=O)OC(C)(C)C | 1.69 | 6.96 | 1900 | 6.49 | – | – | –
7 | COCCOc1ccc(C[C@H](NC(=O)OC(C)(C)C)[C@H](O)CNC[C@@H](O)[C@H](Cc2ccccc2)NC(=O)OC(C)(C)C)cc1 | 1.19 | 7.15 | 20000 | 7.14 | – | – | –
8 | CC(C)(C)OC(=O)N[C@@H](Cc1ccccc1)[C@H](O)CNC[C@@H](O)[C@H](Cc1ccc2ncccc2c1)NC(=O)OC(C)(C)C | – | 7.52 | 15000 | 6.89 | – | – | –
9 | CC(C)(C)OC(=O)N[C@@H](Cc1ccccc1)[C@H](O)CNC[C@@H](O)[C@H](Cc1ccc(OCC(=O)N2CCOCC2)cc1)NC(=O)OC(C)(C)C | 0.87 | 7.00 | > 100000 | 7.00 | – | – | –
10 | CC(C)(C)OC(=O)N[C@@H](Cc1ccccc1)[C@H](O)CNC[C@@H](O)[C@H](Cc1ccc(OCCCN2CCOCC2)cc1)NC(=O)OC(C)(C)C | 1.28 | 7.40 | 17000 | 7.07 | – | – | –
11 | CC(C)(C)OC(=O)N[C@@H](Cc1ccccc1)[C@H](O)CNC[C@@H](O)[C@H](Cc1ccncc1)NC(=O)OC(C)(C)C | 0.8 | 6.27 | 67000 | 6.40 | – | – | –
12 | CC(C)(C)OC(=O)N[C@@H](Cc1ccccc1)[C@H](O)CNC[C@@H](O)[C@H](Cc1ccc(OCCCN2CCOCC2=O)cc1)NC(=O)OC(C)(C)C | 0.92 | 7.25 | 59000 | 7.10 | – | – | –
13 | CN1CCN(CCOc2ccc(C[C@H](NC(=O)OC(C)(C)C)[C@H](O)CNC[C@@H](O)[C@H](Cc3ccccc3)NC(=O)OC(C)(C)C)cc2)C1=O | 1.04 | 7.30 | 50000 | 7.22 | – | – | –
14 | CC(C)(C)OC(=O)N[C@@H](Cc1ccccc1)[C@H](O)CNC[C@@H](O)[C@H](Cc1ccc(O)cc1)NC(=O)OC(C)(C)C | 0.79 | 7.05 | 32000 | 7.00 | – | – | –
15 | CC(C)(C)OC(=O)N[C@@H](Cc1ccccc1)[C@H](O)CNC[C@@H](O)[C@H](Cc1ccc(OCCCc2nc3ccccc3o2)cc1)NC(=O)OC(C)(C)C | 1.98 | 5.82 | 5900 | 6.55 | – | – | –
16 | CC(C)(C)OC(=O)N[C@@H](Cc1ccccc1)[C@H](O)CNC[C@@H](O)[C@H](Cc1ccc(OCC(O)c2ccccn2)cc1)NC(=O)OC(C)(C)C (stereo partly specified) | 0.81 | 6.70 | 58000 | 6.96 | – | – | –
17 | CC(C)(C)OC(=O)N[C@@H](Cc1ccccc1)[C@H](O)CNC[C@@H](O)[C@H](Cc1ccc(OCCc2ccccn2)cc1)NC(=O)OC(C)(C)C | 1.39 | 7.40 | 5000 | 7.30 | – | – | –
18 | CC(C)(C)OC(=O)N[C@@H](Cc1ccccc1)[C@H](O)CNC[C@@H](O)[C@H](Cc1ccc(OCCO)cc1)NC(=O)OC(C)(C)C | 0.82 | 7.22 | 56000 | 7.19 | – | – | –
19 | CC(C)(C)OC(=O)N[C@@H](Cc1ccccc1)[C@H](O)CNC[C@@H](O)[C@H](Cc1cccc(OCc2ccccc2)c1)NC(=O)OC(C)(C)C | 2.04 | 7.05 | 1900 | 6.85 | – | – | –
20 | CC(C)(C)OC(=O)N[C@@H](Cc1ccccc1)[C@H](O)CNC[C@@H](O)[C@H](Cc1ccc(OCCn2ccnc2)cc1)NC(=O)OC(C)(C)C | 0.96 | 7.30 | 22000 | 7.05 | – | – | –
21 | CC(C)(C)OC(=O)N[C@@H](Cc1ccccc1)[C@H](O)CNC[C@@H](O)[C@H](Cc1ccc(OCCOc2cccnc2)cc1)NC(=O)OC(C)(C)C | 1.25 | 7.40 | 18000 | 7.22 | – | – | –
22 | CC(C)(C)OC(=O)N[C@@H](Cc1ccccc1)[C@H](O)CNC[C@@H](O)[C@H](Cc1ccc(OCC(=O)N2CCCCC2)cc1)NC(=O)OC(C)(C)C | 1.33 | 7.15 | 17000 | 7.05 | – | – | –
23 | CC(C)(C)OC(=O)N[C@@H](Cc1ccccc1)[C@H](O)CNC[C@@H](O)[C@H](Cc1ccccc1O)NC(=O)OC(C)(C)C | 1.16 | 5.92 | 17000 | 6.52 | – | – | –
24 | CC(C)(C)OC(=O)N[C@@H](Cc1ccccc1)[C@H](O)CNC[C@@H](O)[C@H](Cc1ccc(OCCN2CCOCC2)cc1)NC(=O)OC(C)(C)C | 1.18 | 7.15 | 25000 | 7.00 | – | – | –
25 | CC(O)COc1ccc(C[C@H](NC(=O)OC(C)(C)C)[C@H](O)CNC[C@@H](O)[C@H](Cc2ccccc2)NC(=O)OC(C)(C)C)cc1 (stereo partly specified) | 1.02 | 7.15 | 22000 | 7.31 | – | – | –
26 | CC(C)(C)OC(=O)N[C@@H](Cc1ccccc1)[C@H](O)CNC[C@@H](O)[C@H](Cc1ccc(COC(=O)N2CCOCC2)cc1)NC(=O)OC(C)(C)C | 1.23 | 7.40 | 27000 | 7.52 | – | – | –
27 | CC(C)(C)OC(=O)N[C@@H](Cc1ccccc1)[C@H](O)CNC[C@@H](O)[C@H](Cc1ccc(OCCN2CCOC2=O)cc1)NC(=O)OC(C)(C)C | 0.82 | 7.10 | 52000 | 7.40 | – | – | –
28 | CC(C)(C)OC(=O)N[C@@H](Cc1ccccc1)[C@H](O)CNC[C@@H](O)[C@H](Cc1ccc(OCc2ccccc2)cc1)NC(=O)OC(C)(C)C | 2 | 6.77 | 1800 | 6.52 | – | – | –
29 | CC(C)(C)OC(=O)N[C@@H](Cc1ccccc1)[C@H](O)CNC[C@@H](O)[C@H](Cc1ccc(CCC(=O)N2CCOCC2)cc1)NC(=O)OC(C)(C)C | 1.03 | 6.68 | 58000 | 7.07 | – | – | –
30 | CC(C)(O)COc1ccc(C[C@H](NC(=O)OC(C)(C)C)[C@H](O)CNC[C@@H](O)[C@H](Cc2ccccc2)NC(=O)OC(C)(C)C)cc1 | 1.22 | 7.05 | 49000 | 6.92 | – | – | –

From ChEMBL document CHEMBL1129312, “Aminodiol HIV protease inhibitors. Synthesis and structure-activity relationships of P1/P1' compounds: correlation between lipophilicity and cytotoxicity” (J Med Chem, 1996)
